What was measured:
[1] = biological target: T1, human glucocorticoid receptor-α [GRX] isoform (Homo sapiens, UniProt P04150); experiment: Radioligand binding with human glucocorticoid receptor cytosol ([3H]-dexamethasone competition); settings: GRX cytosol expressed in insect SF21 cells, [3H]-Dex ~0.9 nM, 4° C. overnight; Ki by Cheng-Prusoff, KL ~[…]; read-out: Ki (nM) GR
T1 construct: host or cells: insect SF21 cells (baculovirus)
T1 sequence (P04150 1-777): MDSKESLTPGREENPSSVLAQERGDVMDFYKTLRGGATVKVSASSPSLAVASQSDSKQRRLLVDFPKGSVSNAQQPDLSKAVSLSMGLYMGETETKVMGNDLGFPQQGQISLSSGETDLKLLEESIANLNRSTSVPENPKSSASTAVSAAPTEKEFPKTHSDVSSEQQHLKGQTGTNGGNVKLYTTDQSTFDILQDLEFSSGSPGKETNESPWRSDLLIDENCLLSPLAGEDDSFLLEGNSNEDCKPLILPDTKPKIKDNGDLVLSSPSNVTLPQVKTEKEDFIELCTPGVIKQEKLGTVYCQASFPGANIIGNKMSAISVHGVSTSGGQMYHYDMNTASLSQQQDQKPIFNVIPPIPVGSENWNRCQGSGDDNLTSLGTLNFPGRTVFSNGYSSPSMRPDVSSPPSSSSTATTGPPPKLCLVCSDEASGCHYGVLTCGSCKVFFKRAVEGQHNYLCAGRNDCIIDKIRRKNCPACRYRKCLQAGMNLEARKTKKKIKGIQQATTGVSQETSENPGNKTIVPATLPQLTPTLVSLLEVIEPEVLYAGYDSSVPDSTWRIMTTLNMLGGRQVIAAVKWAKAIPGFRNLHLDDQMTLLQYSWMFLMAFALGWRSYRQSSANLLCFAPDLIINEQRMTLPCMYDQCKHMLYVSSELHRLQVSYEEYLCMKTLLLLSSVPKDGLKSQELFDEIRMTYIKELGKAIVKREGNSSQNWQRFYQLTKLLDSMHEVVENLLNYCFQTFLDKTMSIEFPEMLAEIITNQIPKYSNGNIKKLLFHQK

[2] = biological target: T2, human progesterone receptor-A [PRA] isoform (Homo sapiens, UniProt P06401); experiment: Radioligand binding with human progesterone receptor cytosol ([3H]-progesterone competition); settings: PRA cytosol expressed in insect SF21 cells, [3H]Prog ~0.8 nM, 4° C. overnight; Ki by Cheng-Prusoff, KL ~4.5 nM; read-out: Ki (nM) PR
T2 construct: host or cells: insect SF21 cells (baculovirus)
T2 sequence (P06401 1-769 isoform P06401-2): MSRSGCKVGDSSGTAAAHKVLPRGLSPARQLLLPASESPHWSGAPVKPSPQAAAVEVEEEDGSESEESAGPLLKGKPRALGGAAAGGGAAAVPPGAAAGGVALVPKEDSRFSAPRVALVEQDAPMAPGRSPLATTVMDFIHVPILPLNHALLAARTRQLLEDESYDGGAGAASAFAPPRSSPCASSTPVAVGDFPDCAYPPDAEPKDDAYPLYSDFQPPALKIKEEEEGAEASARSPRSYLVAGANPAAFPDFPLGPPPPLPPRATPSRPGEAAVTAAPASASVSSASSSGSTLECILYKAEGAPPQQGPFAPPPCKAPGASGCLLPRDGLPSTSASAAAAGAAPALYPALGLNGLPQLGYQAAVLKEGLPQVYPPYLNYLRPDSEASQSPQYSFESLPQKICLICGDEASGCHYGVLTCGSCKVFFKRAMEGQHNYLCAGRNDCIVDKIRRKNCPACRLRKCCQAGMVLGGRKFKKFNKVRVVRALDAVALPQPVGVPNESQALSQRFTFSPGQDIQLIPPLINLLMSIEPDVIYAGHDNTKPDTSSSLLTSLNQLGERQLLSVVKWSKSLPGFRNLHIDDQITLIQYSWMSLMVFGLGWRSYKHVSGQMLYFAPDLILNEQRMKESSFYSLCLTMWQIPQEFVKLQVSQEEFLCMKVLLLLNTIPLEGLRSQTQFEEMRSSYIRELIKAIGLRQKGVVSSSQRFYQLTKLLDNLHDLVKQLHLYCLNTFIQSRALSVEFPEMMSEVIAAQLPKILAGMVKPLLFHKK

Row | Ki [1] [nM] | Ki [2] [nM] | Compound
1 | 20 | ≥ 10000 | C=CCC1Oc2cccc(OC)c2-c2ccc3c(c21)C(C)=CC(C)(C)N3 (single isomer, unassigned; (+)) [Example 37, (+)-2,5-Dihydro-10-methoxy-2,2,4-trimethyl-5-(2-propenyl)-1H-[1]benzopyrano[3,4-f]quinoline]
2 | 110 | 2100 | COc1c(O)ccc2c1-c1ccc3c(c1C(C1C=CCCC1)O2)C(C)=CC(C)(C)N3 (single isomer, unassigned; (+)) [Example 284]
3 | 1.2 | 11.5 | COc1c(O)ccc2c1-c1ccc3c(c1[C@H](C1(C)CC=CCC1)O2)C(C)=CC(C)(C)N3 (single isomer, unassigned; (-)) [Example 238]
4 | 8.16 | 5630 | COc1cccc2c1-c1ccc3c(c1C([C@@H]1C=C(CSC)CCC1)O2)C(C)=CC(C)(C)N3 (stereo in doubt) [Example 166]
5 | 21 | ≥ 10000 | COc1cccc2c1-c1ccc3c(c1C([C@H]1C=C(CN4CCOCC4)CCC1)O2)C(C)=CC(C)(C)N3 (stereo in doubt) [Example 167, rel (5R, 3′R) 2,5-Dihydro-10-methoxy-5-(1-(N-morpholino)methyl-3-cyclohexenyl)-2,2,4-trimethyl-1H-[1]benzopyrano[3,4-f]quinoline]
6 | 300 | ≥ 10000 | COc1cccc2c1-c1ccc3c(c1C([C@@H]1C=C(CN(C)C)CCC1)O2)C(C)=CC(C)(C)N3 (stereo in doubt) [Example 169, rel (5R, 3′S) 2,5-Dihydro-10-methoxy-5-(1-(N,N dimethylamino)methyl-3-cyclohexenyl)-2,2,4-trimethyl-1H-[1]benzopyrano[3,4-f]quinoline]
7 | 7.6 | 1700 | C=CCC1Oc2cccc(OC)c2-c2ccc3c(c21)C(C)=CC(C)(C)N3 (stereo not shown) [Example 2, 2,5-Dihydro-10-methoxy-2,2,4-trimethyl-5-(2-propenyl)-1H-[1]benzopyrano[3,4-f]quinoline]

More lines, now with the values behind:

Row | Compound | Ki [1] [nM] | Ki [2] [nM]
8 | C=CCC1Oc2cccc(OC)c2-c2ccc3c(c21)C(C)=CC(C)(C)N3 (single isomer, unassigned; (-)) [Example 36, (−)2,5-Dihydro-10-methoxy-2,2,4-trimethyl-5-(2-propenyl)-1H-[1]benzopyrano[3,4-f]quinoline] | 1.4 | 1700
9 | CC1=CC(C)(C)Nc2ccc3c(c21)C(C1CCCC1)Oc1ccc(O)c(Cl)c1-3 (single isomer, unassigned; (-)) [Example 422, (−)2,5-Dihydro-9-hydroxy-10-chloro-2,2,4-trimethyl-5-cyclopentyl-1H-[1]benzopyrano[3,4-f]quinoline] | 0.28 | 2.9
10 | COc1cccc2c1-c1ccc3c(c1[C@@H](C1CCCOC1=O)O2)C(C)=CC(C)(C)N3 (stereo in doubt) [Example 134, rel (5R,2′R) 2,5-Dihydro-10-methoxy-5-(2-oxo-3-tetrahydropyranyl)-2,2,4-trimethyl-1H[1]benzopyrano[3,4-f]quinoline] | 238 | ≥ 10000
11 | COc1cccc2c1-c1ccc3c(c1[C@H](C1(C)CC=CCC1)O2)C(C)=CC(C)(C)N3 (stereo in doubt) [Example 152, rel (5S,3′S) 2,5-Dihydro-10-methoxy-5-(1-methyl-3-cyclohexenyl)-2,2,4-trimethyl-1H[1]benzopyrano[3,4-f]quinoline] | 1.8 | ≥ 10000
12 | COc1cccc2c1-c1ccc3c(c1C([C@H]1C=C(CSC)CCC1)O2)C(C)=CC(C)(C)N3 (stereo in doubt) [Example 161] | 3.3 | ≥ 10000
13 | COc1cccc2c1-c1ccc3c(c1C([C@@H]1C=C(COC(C)=O)CCC1)O2)C(C)=CC(C)(C)N3 (stereo in doubt) [Example 162] | 6.5 | ≥ 10000
14 | COc1cccc2c1-c1ccc3c(c1C(c1ccccc1)O2)C(C)=CC(C)(C)N3 (stereo not shown) [Example 1, 2,5-Dihydro-10-methoxy-2,2,4-trimethyl-5-phenyl-1H-[1]benzopyrano[3,4-f]quinoline1H-[1]benzopyrano[3,4-f]quinoline] | 8.6 | ≥ 10000

Reference: patent US6506766B1 (Abbott Laboratories, priority 1998, dated 2003)
